Test results as given in patent US20210380525A1, “COMPOSITIONS AND METHODS FOR THE TREATMENT OF PARKINSON'S DISEASE” (Cellix Bio Private Limited, priority 2018, published 2021).

Assays:
[1] = Pharmacokinetic study: plasma L-Dopa after single subcutaneous administration of CLX-SYN-G107B-C01; type: in vivo, Sprague-Dawley rats; settings: lowest tested dose of 50 mg/kg s.c. compared to other doses, SD rats
Experimental: (§1) The objective of this study was to determine the pharmacokinetics of L-Dopa after a single subcutaneous administration of CLX-SYN-G107B-C01 at the doses of 50, 150 and 300 mg/Kg, in male Sprague-Dawley (SD) rats.
(§2) Three groups of 5-male rats in each (age 8-10 weeks; body weight range 198-226 g) were assigned to receive CLX-SYN-G107B-C01 at the doses of 50, 150 and 300 mg/kg, by subcutaneous route. CLX-SYN-G107B-C01 was formulated in Propylene glycol and PEG-300 for subcutaneous administration. The dose volume was 2 ml/kg.
The blood samples (0.2 mL/time point) from the animals were collected at 0 (pre-dose), 0.083, 0.25, 0.5, 1, 2, 4, 8, 10, 24, 48 and 72 h post dosing after subcutaneous administration. The plasma samples were analyzed for L-Dopa using a fit-for-purpose LC-MS/MS method.

[2] = Clinical signs of toxicity in the pharmacokinetic study; type: in vivo; settings: single s.c. dose 50, 150 and 300 mg/Kg, male SD rats
Experimental: as §1, §2

## CCCCCCC(=O)N[C@@H](Cc1ccc(O)c(O)c1)C(=O)OCC(COC(=O)CCCCCC)OC(=O)CCCCCC (stereo partly drawn) [CLX-SYN-G107B-C01, 3-(((S)-3-(3,4-dihydroxyphenyl)-2-heptanamidopropanoyl)oxy)propane-1,2-diyl diheptanoate]
[1]
  Bioavailability (comparison of doses): enhanced bioavailability with low dose
[2]
  Clinical signs of toxicity: No clinical signs of toxicity were observed
